Experimental findings from patent publication US11717536B2, “Treatment for periodontitis” (THE UNIVERSITY OF MELBOURNE, priority 2017, dated 2023) are described below.

Entries after “also recorded” stand apart in the source; their conditions may differ. Marks after values point to notes of the source that are not given here.

Test [1] has as its system Fusobacterium nucleatum (ATCC 10953). Kind of test: Six species polymicrobial biofilm in constant-depth film fermenter, species composition: F. nucleatum. The test is classed as cell-based. As to the method: (§1) To model supragingival plaque six representative oral bacterial species, Streptococcus sanguinis (NCTC 7863), Streptococcus mutans Ingbritt, Actinomyces naeslundii (NCTC 10301), Veillonella parvula (ATCC 17745), Lactobacillus casei (NCDO 161) and Fusobacterium nucleatum (ATCC 10953) (Table 5) were cultured as a polymicrobial biofilm on a human enamel substratum in a constant-depth film fermenter (CDFF; Cardiff University, UK). The CDFF was housed in a 37° C. incubator under anaerobic conditions which were maintained by a constant flow of 5% CO2 in N2 at 1 L/h. The CDFF contained 15 removable polytetrafluoroethylene (PTFE) pans on a circular platform that was rotated at a constant speed of three rpm. The biofilms were grown on three enamel blocks (see below) in each PTFE pan using an artificial saliva medium (ASM, 2.5 g/L mucin type II (porcine, gastric, Sigma), 2.0 g/L bacteriological peptone (Oxoid), 2.0 g/L tryptone (Oxoid), 1.0 g/L yeast extract (Oxoid), 0.35 g/L NaCl, 0.2 g/L KCl, 0.2 mg/L vitamin K, 1 mg/L haemin and 0.1 g/L cysteine hydrochloride) at a constant flow rate of 30 mL/h. Prior to inoculation, the CDFF pan surfaces were conditioned for 24 h with ASM at a flow rate of 10 mL/h (McBain et al (2003) J Appl Microbiol. 94(4):655-66). In order to mimic in vivo bacterial growth conditions in the oral cavity with dietary sugar intake and to provide a high cariogenic challenge, a 1% (w/v) sucrose solution in ASM was pumped into the CDFF four times a day at four hourly intervals with a flow rate of 30 mL/h for 10 min.
Three treatments were applied to the polymicrobial biofilms: 290 ppm fluoride with 220 ppm fluoride as SnF2 and 70 ppm fluoride as NaF (referred to as SnF2), 2% CPP-ACP and 2% CPP-ACP-SnF2. These treatments were compared with the control in which the test solution was replaced with ASM. Each treatment was applied using two 10 min pulses of the test solution in ASM with a flow rate of 30 mL/h. The first pulse started 30 min prior to the first sucrose pulse of the morning and the second started 3 h 30 min after the final sucrose pulse of the day.
On day 6, 12 and 19 after inoculation four pans were removed aseptically from the CDFF and replaced with blank sterile pans. Enamel blocks from the pans were removed for bacterial enumeration and transverse microradiography.
Planktonic and loosely attached bacterial cells were firstly removed from the enamel blocks by light washing with 100 μL ASM. To harvest the biofilm cells on each block, the surface was scraped with a sterile scraper with 1 mL of ASM. The biofilm bacterial cells were sedimented by centrifugation (10,000 g, 10 min), the supernatant carefully decanted and the cell pellets stored at −80° C. until required for DNA extraction. The enamel blocks were then used for sectioning and microradiography.
For each timepoint, DNA was extracted separately from 8-9 enamel blocks using PowerLyzer® PowerSoil® DNA Isolation Kits (MoBio Laboratories) following the manufacturers “Vacuum Protocol” with a Precellys® bead homogeniser (Bertin Technologies). Samples were quantified using a Qubit™ dsDNA HS assay kit (Life Technologies) before being stored at −80° C.
The Ion Amplicon Library Preparation Fusion Method (Thermo Fisher Scientific), was adapted for amplification of the V4 region of the 16S rRNA gene. […]

For another test, the system named is Leptotrichia buccalis. Kind of test: Clinical trial: plaque microbial analysis, Leptotrichia buccalis. The class given is in vivo. As to conditions: 18.8 mg CPP-ACP sugar-free gum, 20 min six times per day, 14 days, vs no gum chewing; supragingival plaque. The text has this: Following the completion of the examination and supragingival plaque collection, participants received a supragingival scaling, clean and prophylaxis of all their teeth. At the completion of the last examination for leg 3, each participant received a professional fluoride treatment.
Participants had all supragingival plaque collected from the buccal surfaces of their maxillary molars (teeth 17, 16, 26 & 27) with a sterile scaling instrument. The plaque samples from each tooth were placed in separate sterile tubes, to give four samples per participant.
Genomic DNA was extracted from the plaque using a combination of mechanical disruption of the cells via a Precellys homogeniser and the chemical extraction and purification of the genomic DNA via the PowerLyzer PowerSoil DNA Isolation Kit (MoBio). Quantitation of the extracted DNA was achieved using a Qubit dsDNA High Sensitivity Assay kit (ThermoFisher), before 5 ng DNA was used as template in a PCR reaction that amplified the V4 variable region of the 16S ribosomal RNA gene and individually barcoded the PCR product from each sample. The barcoded DNA was then sequenced using an Ion Torrent Personal Genome machine and Torrent Suite™ Software (ThermoFisher).
Analysis of the resulting sequence of the 16S ribosomal RNA gene enabled identification of the bacterial population present in each sample, down to the species level. […]

Test [2] deals with Streptococcus mutans Ingbritt. The experiment in a line: Six species polymicrobial biofilm in constant-depth film fermenter, species composition: S. mutans. The class given is cell-based. How it is done:
as §1
Three treatments were applied to the polymicrobial biofilms: 290 ppm fluoride with 220 ppm fluoride as SnF2 and 70 ppm fluoride as NaF (referred to as SnF2), 2% CPP-ACP and 2% CPP-ACP-SnF2. […]
For each timepoint, DNA was extracted separately from 8-9 enamel blocks using PowerLyzer® PowerSoil® DNA Isolation Kits (MoBio Laboratories) following the manufacturers “Vacuum Protocol” with a Precellys® bead homogeniser (Bertin Technologies). Samples were quantified using a Qubit™ dsDNA HS assay kit (Life Technologies) before being stored at −80° C. […]

[3] abbreviates: 19 days, mean ± standard deviation, n = 5-21.

In the case of “Casein phosphopeptide-amorphous calcium phosphate [CPP-ACP]”, the “F. nucleatum as a percentage of total bacteria in the biofilm” value in test [1] (setting [3]) is recorded as 2.43 ± 1.21^ace %. The “change in abundance of F. nucleatum after treatment relative to the control (increase)” value in test [1] (day 19, FIG. 5B) stood at 355%. Besides, in test [1] (twice daily treatment, day 19), the “change in abundance of F. nucleatum relative to the control (in words)” value is on record as “significantly increased; also recorded: reproducible increases”. Also, the “% decrease in relative abundance, Leptotrichia buccalis” value in the test on Leptotrichia buccalis was 76% (p < 0.05). Moreover, the “S. mutans as a percentage of total bacteria in the biofilm” value in test [2] (setting [3]) is recorded as 58.70 ± 5.47^b %. Also, the “change in abundance of S. mutans relative to the control (in words)” value in test [2] (twice daily treatment, day 19) is “remained relatively constant”.
